Measured values as given in ChEMBL document CHEMBL4130619, “Structure-Based Virtual Screening for the Discovery of Novel Inhibitors of New Delhi Metallo-β-lactamase-1” (ACS Med Chem Lett, 2018).
Converted amounts (≈) assume the structure as drawn.

Experiments:
[1] = test system: Escherichia coli; assay: Antibacterial activity in Escherichia coli clinical isolates endogenously expressing NDM1 incubated at 37 degC for 18 hrs by spectrophotometry; assay type: functional
[2] = test system: Escherichia coli; assay: Antibacterial activity in Escherichia coli BL21 (DE3) expressing pET-24a-blaNDM-1 incubated at 37 degC for 18 hrs by spectrophotometry; assay type: functional
[3] = Competitive inhibition of bacterial NDM1 expressed in Escherichia coli JM109 (DE3) pre-incubated for 10 mins before nitrocefin substrate addition by spectrophotometry; design: species or system Bacteria
[4] = test system: Bacteria; assay: Competitive inhibition of bacterial NDM1 expressed in Escherichia coli JM109 (DE3) at 200 uM pre-incubated for 10 mins before nitrocefin substrate addition by spectrophotometry
[5] = test system: Bacteria; assay: (§1) Inhibition of bacterial NDM1 expressed in Escherichia coli BL21 (DE3) expressing pET-24a-blaNDM-1 assessed as potentiation of meropenem-induced antibacterial activity by measuring reduction in meropenem MIC incubated at 37 degC for 18 hrs by spectrophotometry based checkerboard microdilution assay
[6] = test system: Bacteria; assay: as §1, with “ampicillin-induced” for “meropenem-induced”, “combination” for “reduction in meropenem”, “MIC at 0.25 ug/ml” for “MIC”
[7] = target: Beta-lactamase NDM-1 (Escherichia coli) (UniProt E5KIY2); assay: Inhibition of NDM1 in Escherichia coli clinical isolates assessed as potentiation of meropenem -induced antibacterial activity by measuring fractional inhibitory concentration index at 32 ug/ml incubated at 37 degC for 18 hrs by spectrophotometry based checkerboard microdilution assay
[8] = target: Beta-lactamase NDM-1 (Escherichia coli) (UniProt E5KIY2); assay: Inhibition of NDM1 in Escherichia coli clinical isolates assessed as potentiation of cefotaxime-induced antibacterial activity by measuring fractional inhibitory concentration index at >256 ug/ml incubated at 37 degC for 18 hrs by spectrophotometry based checkerboard microdilution assay
[9] = test system: Bacteria; assay: as §1, with “cefazolin-induced” for “meropenem-induced”, “fractional inhibitory concentration index at 0.25 ug/ml” for “reduction in meropenem MIC”
[10] = target: Beta-lactamase NDM-1 (Escherichia coli) (UniProt E5KIY2); assay: Inhibition of NDM1 in Escherichia coli clinical isolates assessed as potentiation of cefazolin-induced antibacterial activity by measuring combination MIC at >256 ug/ml incubated at 37 degC for 18 hrs by spectrophotometry based checkerboard microdilution assay
[11] = target: Beta-lactamase NDM-1 (Escherichia coli) (UniProt E5KIY2); assay: Inhibition of NDM1 in Escherichia coli clinical isolates assessed as potentiation of meropenem -induced antibacterial activity by measuring fractional inhibitory concentration index at 64 ug/ml incubated at 37 degC for 18 hrs by spectrophotometry based checkerboard microdilution assay
[12] = test system: Bacteria; assay: (§2) Inhibition of bacterial NDM1 expressed in Escherichia coli BL21 (DE3) expressing pET-24a-blaNDM-1 assessed as potentiation of meropenem-induced antibacterial activity by measuring combination MIC at 64 ug/ml incubated at 37 degC for 18 hrs by spectrophotometry based checkerboard microdilution assay
[13] = target: Beta-lactamase NDM-1 (Escherichia coli) (UniProt E5KIY2); assay: Inhibition of NDM1 in Escherichia coli clinical isolates assessed as potentiation of cefazolin-induced antibacterial activity by measuring fractional inhibitory concentration index at >256 ug/ml incubated at 37 degC for 18 hrs by spectrophotometry based checkerboard microdilution assay
[14] = target: Beta-lactamase NDM-1 (Escherichia coli) (UniProt E5KIY2); assay: Inhibition of NDM1 in Escherichia coli clinical isolates assessed as potentiation of meropenem -induced antibacterial activity by measuring combination MIC at 64 ug/ml incubated at 37 degC for 18 hrs by spectrophotometry based checkerboard microdilution assay
[15] = test system: Bacteria; assay: as §2, with “cefazolin-induced” for “meropenem-induced”, “0.25” for “64”
[16] = target: Beta-lactamase NDM-1 (Escherichia coli) (UniProt E5KIY2); assay: Inhibition of NDM1 in Escherichia coli clinical isolates assessed as potentiation of cefotaxime-induced antibacterial activity by measuring combination MIC at >256 ug/ml incubated at 37 degC for 18 hrs by spectrophotometry based checkerboard microdilution assay
[17] = test system: Bacteria; assay: (§3) Inhibition of bacterial NDM1 expressed in Escherichia coli BL21 (DE3) expressing pET-24a-blaNDM-1 assessed as potentiation of meropenem-induced antibacterial activity by measuring combination MIC at 0.5 ug/ml incubated at 37 degC for 18 hrs by spectrophotometry based checkerboard microdilution assay
[18] = target: Beta-lactamase NDM-1 (Escherichia coli) (UniProt E5KIY2); assay: Inhibition of NDM1 in Escherichia coli clinical isolates assessed as potentiation of meropenem -induced antibacterial activity by measuring combination MIC at 32 ug/ml incubated at 37 degC for 18 hrs by spectrophotometry based checkerboard microdilution assay
[19] = test system: Bacteria; assay: as §2, with “cefotaxime-induced” for “meropenem-induced”, “0.25” for “64”
[20] = test system: Bacteria; assay: as §2, with “cefotaxime-induced” for “meropenem-induced”, “fractional inhibitory concentration index” for “combination MIC”, “0.25” for “64”
[21] = test system: Bacteria; assay: as §3, with “fractional inhibitory concentration index” for “combination MIC”
[22] = test system: Bacteria; assay: as §2, with “fractional inhibitory concentration index” for “combination MIC”
[23] = test system: Bacteria; assay: as §2, with “ampicillin-induced” for “meropenem-induced”, “fractional inhibitory concentration index” for “combination MIC”, “0.25” for “64”
[24] = target: Beta-lactamase NDM-1 (Escherichia coli) (UniProt E5KIY2); assay: Inhibition of NDM1 in Escherichia coli clinical isolates assessed as potentiation of meropenem-induced antibacterial activity by measuring reduction in meropenem MIC incubated at 37 degC for 18 hrs by spectrophotometry based checkerboard microdilution assay
[25] = target: Beta-lactamase NDM-1 (Escherichia coli) (UniProt E5KIY2); assay: Inhibition of NDM1 in Escherichia coli clinical isolates assessed as potentiation of ampicillin-induced antibacterial activity by measuring combination MIC at 128 ug/ml incubated at 37 degC for 18 hrs by spectrophotometry based checkerboard microdilution assay
[26] = test system: Bacteria; assay: as §2, with “cefotaxime-induced” for “meropenem-induced”, “fractional inhibitory concentration index” for “combination MIC”, “4” for “64”
[27] = test system: Bacteria; assay: as §2, with “cefazolin-induced” for “meropenem-induced”, “fractional inhibitory concentration index” for “combination MIC”, “256” for “64”
[28] = test system: Bacteria; assay: Inhibition of bacterial NDM1 expressed in Escherichia coli BL21 (DE3) expressing pET-24a-blaNDM-1 assessed as potentiation of cefotaxime-induced antibacterial activity by measuring combination MIC at 4 ug/ml incubated at 37 degC for 18 hrs by spectrophotometry based checkerboard microdilution assay
[29] = test system: Bacteria; assay: (§4) Inhibition of bacterial NDM1 expressed in Escherichia coli BL21 (DE3) expressing pET-24a-blaNDM-1 assessed as potentiation of cefazolin-induced antibacterial activity by measuring combination MIC at 256 ug/ml incubated at 37 degC for 18 hrs by spectrophotometry based checkerboard microdilution assay
[30] = target: Beta-lactamase NDM-1 (Escherichia coli) (UniProt E5KIY2); assay: Inhibition of NDM1 in Escherichia coli clinical isolates assessed as potentiation of meropenem -induced antibacterial activity by measuring fractional inhibitory concentration index at 2 ug/ml incubated at 37 degC for 18 hrs by spectrophotometry based checkerboard microdilution assay
[31] = test system: Bacteria; assay: as §2, with “fractional inhibitory concentration index” for “combination MIC”, “0.25” for “64”
[32] = test system: Bacteria; assay: as §4, with “>256” for “256”
[33] = test system: Bacteria; assay: as §2, with “ampicillin-induced” for “meropenem-induced”, “>256” for “64”
[34] = test system: Bacteria; assay: as §2, with “0.25” for “64”
[35] = test system: Bacteria; assay: as §2, with “fractional inhibitory concentration index” for “combination MIC”, “16” for “64”
[36] = test system: Bacteria; assay: Inhibition of bacterial NDM1 expressed in Escherichia coli BL21 (DE3) expressing pET-24a-blaNDM-1 assessed as potentiation of meropenem-induced antibacterial activity by measuring combination MIC at 16 ug/ml incubated at 37 degC for 18 hrs by spectrophotometry based checkerboard microdilution assay
[37] = test system: Bacteria; assay: as §4, with “ampicillin-induced” for “cefazolin-induced”, “fractional inhibitory concentration index” for “combination MIC”
[38] = test system: Bacteria; assay: as §4, with “ampicillin-induced” for “cefazolin-induced”
[39] = test system: Bacteria; assay: as §4, with “fractional inhibitory concentration index” for “combination MIC”, “>256” for “256”
[40] = test system: Bacteria; assay: Inhibition of bacterial NDM1 expressed in Escherichia coli BL21 (DE3) expressing pET-24a-blaNDM-1 assessed as potentiation of cefotaxime-induced antibacterial activity by measuring reduction in cefotaxime MIC incubated at 37 degC for 18 hrs by spectrophotometry based checkerboard microdilution assay
[41] = test system: Bacteria; assay: as §2, with “ampicillin-induced” for “meropenem-induced”, “fractional inhibitory concentration index” for “combination MIC”, “>256” for “64”
[42] = target: Beta-lactamase NDM-1 (Escherichia coli) (UniProt E5KIY2); assay: Inhibition of NDM1 in Escherichia coli clinical isolates assessed as potentiation of meropenem -induced antibacterial activity by measuring combination MIC at 2 ug/ml incubated at 37 degC for 18 hrs by spectrophotometry based checkerboard microdilution assay
[43] = target: Beta-lactamase NDM-1 (Escherichia coli) (UniProt E5KIY2); assay: Inhibition of NDM1 in Escherichia coli clinical isolates assessed as potentiation of ampicillin-induced antibacterial activity by measuring fractional inhibitory concentration index at 128 ug/ml incubated at 37 degC for 18 hrs by spectrophotometry based checkerboard microdilution assay

## C[C@@H](O)[C@H]1C(=O)N2C(C(=O)O)=C(S[C@@H]3CN[C@H](C(=O)N(C)C)C3)[C@H](C)[C@H]12 [MEROPENEM]
[1]
  MIC: 128 mg/L (≈ 334 µM)
[2]
  MIC: 1 mg/L (≈ 2.61 µM)

## O=C(O)CN1C(=O)S/C(=C\c2ccccc2Br)C1=O
[3]
  Ki: 76 µM
[4]
  inhibition: > 50%

## O=C(O)CC(Sc1c[nH]c2ccccc12)C(=O)O (centres undefined)
[3]
  Ki: 68 µM
[4]
  inhibition: > 50%

## Sc1nncn1NCc1cccc(Br)c1
[5]
  fold change (FC): 4
[6]
  MIC: 1020 mg/L
[7]
  fractional inhibitory concentration index (FICI): < 0.313
[8]
  fractional inhibitory concentration index (FICI): > 1
[9]
  fractional inhibitory concentration index (FICI): < 0.501
[10]
  MIC: 2050 mg/L
[11]
  fractional inhibitory concentration index (FICI): < 0.501
[12]
  MIC: 0.25 mg/L
[13]
  fractional inhibitory concentration index (FICI): > 1
[14]
  MIC: 64 mg/L
[15]
  MIC: 32 mg/L
[16]
  MIC: 1020 mg/L
[17]
  MIC: 0.5 mg/L
[18]
  MIC: 32 mg/L
[19]
  MIC: 4 mg/L
[20]
  fractional inhibitory concentration index (FICI): < 0.501
[3]
  Ki: 1 µM
[21]
  fractional inhibitory concentration index (FICI): < 0.501
[4]
  inhibition: > 50%
[22]
  fractional inhibitory concentration index (FICI): < 0.375
[23]
  fractional inhibitory concentration index (FICI): < 0.501
[24]
  fold change (FC): 4

## CO/N=C(\C(=O)N[C@@H]1C(=O)N2C(C(=O)O)=C(COC(C)=O)CS[C@H]12)c1csc(N)n1 [CEFOTAXIME]
[1]
  MIC: 1020 mg/L (≈ 2250 µM)
[2]
  MIC: 8 mg/L (≈ 17.6 µM)

## Cc1nnc(SCC2=C(C(=O)O)N3C(=O)[C@@H](NC(=O)Cn4cnnn4)[C@H]3SC2)s1 [CEFAZOLIN]
[2]
  MIC: ≥ 32 mg/L

## Cc1ccc(-n2nnnc2CS(=O)(=O)c2ccccc2)cc1
[3]
  Ki: 71 µM
[4]
  inhibition: > 50%

## CC1(C)S[C@@H]2[C@H](NC(=O)[C@H](N)c3ccccc3)C(=O)N2[C@H]1C(=O)O [AMPICILLIN]
[1]
  MIC: > 32800 mg/L
[2]
  MIC: 1020 to 2050 mg/L (≈ 2930 to 5860 µM)

## O=C(CS(=O)(=O)c1ccccc1)NC1CCCCC1
[3]
  Ki: 52 µM
[4]
  inhibition: > 50%

## Nc1nnnn1NCc1cccc(Cl)c1Cl
[3]
  Ki: 67 µM
[4]
  inhibition: > 50%

## Cn1c(SCC(=O)O)nnc1-c1ccc(N)cc1
[3]
  Ki: 85 µM
[4]
  inhibition: > 50%

## Nc1ncnc2c1nc(S(=O)(=O)O)n2Cc1ccccc1
[3]
  Ki: 65 µM
[4]
  inhibition: > 50%

## C=CCn1c(S)nnc1-c1ccccc1O
[25]
  MIC: 16 mg/L
[26]
  fractional inhibitory concentration index (FICI): < 0.258
[5]
  fold change (FC): 16
[27]
  fractional inhibitory concentration index (FICI): < 0.625
[7]
  fractional inhibitory concentration index (FICI): < 0.313
[8]
  fractional inhibitory concentration index (FICI): > 1
[28]
  MIC: 2 mg/L
[29]
  MIC: 1 mg/L
[10]
  MIC: 2050 mg/L
[13]
  fractional inhibitory concentration index (FICI): > 1
[30]
  fractional inhibitory concentration index (FICI): < 0.504
[31]
  fractional inhibitory concentration index (FICI): < 0.501
[32]
  MIC: 32 mg/L
[33]
  MIC: 1020 mg/L
[16]
  MIC: 1020 mg/L
[34]
  MIC: 0.5 mg/L
[35]
  fractional inhibitory concentration index (FICI): < 0.281
[36]
  MIC: 0.25 mg/L
[18]
  MIC: 32 mg/L
[37]
  fractional inhibitory concentration index (FICI): < 0.563
[38]
  MIC: 0.0625 mg/L
[19]
  MIC: 4 mg/L
[20]
  fractional inhibitory concentration index (FICI): < 0.505
[3]
  Ki: 0.72 µM
[39]
  fractional inhibitory concentration index (FICI): > 1
[40]
  fold change (FC): 4
[41]
  fractional inhibitory concentration index (FICI): > 1
[42]
  MIC: 64 mg/L
[4]
  inhibition: > 50%
[43]
  fractional inhibitory concentration index (FICI): < 0.375
[24]
  fold change (FC): 8
